Source: publication PMC3364214, “Role of Operon aaoSo-mutT in Antioxidant Defense in Streptococcus oligofermentans” (PLoS ONE, 2012)

Molecular target: T1, MutT (Streptococcus cristatus, UniProt A0ABN4B3E2)
T1 construct: gene I872_01330; mutT (453 bp fragment) in NcoI-XhoI of pET-28a, His6-tag fusion (C-terminal by the primers), E. coli BL21(DE3) pLysS, Histrap purified; tag removal not mentioned
T1 sequence (A0ABN4B3E2 1-151): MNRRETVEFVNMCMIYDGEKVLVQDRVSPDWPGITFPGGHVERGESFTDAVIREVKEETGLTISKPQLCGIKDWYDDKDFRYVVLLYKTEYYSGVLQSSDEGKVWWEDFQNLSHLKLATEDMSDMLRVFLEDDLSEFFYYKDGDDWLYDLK
Test: HPLC of 8-oxo-dGTP degradation (UV […] nm)
Format: biochemical
Conditions: 100 uM substrate, 100 nM MutT, 5 mM MgCl2, 100 mM Tris-HCl pH 9.0, 5% glycerol, 37 C, 20 min

Nc1nc2c([nH]c(=O)n2[C@H]2C[C@H](O)[C@@H](COP(=O)(O)OP(=O)(O)OP(=O)(O)O)O2)c(=O)[nH]1 [8-oxo-dGTP]
HPLC of 8-oxo-dGTP degradation (UV 293 nm): reduction of 8-oxo-dGTP levels was detected in the reaction mixture by HPLC
